Results from US8552052B2, “Use of diindolylmethane-related indoles for the treatment and prevention of respiratory syncytial virus associated conditions” (BioResponse, L.L.C., priority 2004, dated 2013).

Experiments:
RSV infected A549 cells = assay: TUNEL assay for visualization of apoptosis in RSV infected A549 cells; assay type: cell-based, human; details: DIM at 210 and 700 nM; 12, 18, and 24 hours post infection; data not shown
Experimental: Cell Culture—A549 cells, a tumor cell line with properties of normal airway epithelial cells, were obtained from American Type Culture Collection (ATCC, Manassas, Va.) and incubated at 37° C. in 5% CO2. The cells were cultured in Eagle's minimum essential medium (MEM, Invitrogen) supplemented with 10% fetal bovine serum (HyClone, Logan, Utah) and […] gentamicin. The A549 cells were subcultured by harvesting in 0.12% trypsin no more than 20 times from stock originally designated at pass 70. To minimize effects of exogenous growth factors or cytokines in this system, the supplemented serum concentration was reduced to 0.5% 24 h prior to and during all experiments with RSV infection.
RSV Virus—RSV, strain A2, was obtained from Advanced Biotechnologies Inc. (Columbia, Md.) and was used directly as supplied for all experiments. The viral preparation was tested to have a TCID50 titer of ˜1×10^9 in Hep-2 cells at 7 days. Sterile vials of the RSV preparation were supplied in MEM supplemented with 10% fetal calf serum, stored at −135° C. and rapidly thawed at 37° C. immediately prior to use. […]
Apotosis in RSV infected A549 cells cultured with and without DIM was further studied using the TUNEL assay for visualization of apoptosis. […] To remove unincorporated dUTP, slides were washed three times 15 min each with 2×SSC and three times with PBS, and then viewed in a fluorescence microscope. […]

Caspase-3 = Caspase-3 activation in RSV infected A549 cell culture; assay type: cell-based, human; details: RSV infected A549 cells; DIM 70, 210, and 700 nM
[1] = test system: apoptosis-specific nucleosomes; assay: Nucleosome ELISA in lung of RSV infected BALB/c mice; assay type: in vivo; details: oral and subcutaneous DIM, FIG. 5B
Experimental: The Following Experimental BALB/c Groups and Treatment Protocol Using DIM were Studied: • 1. RSV infected positive control group, infected with RSV and injected subcutaneously (SC) once daily with DMSO/Phosphate Buffered Saline (PBS) vehicle. • 2. RSV infected, Low dose Parenteral DIM group (15 mg/kg/day), injected SC once daily with DIM suspension • 3. RSV infected, High dose DIM Group (150 mg/kg/day), injected SC once daily with DIM suspension • 4. RSV infected, orally treated DIM group (250 mg/kg/day from absorption enhanced DIM [Example 6.1]), added to powdered feed • 5. Uninfected negative control group, nasally administered vehicle only, and injected subcutaneously (SC) once daily with DMSO/PBS vehicle
Mouse treatment, infection and harvest. Intranasal application of RSV in BALB/c mice followed an established procedure (Bitko et al., 2005, Nat Med. 11(1):50-5) and causes predictable pulmonary disease and inflammation. For RSV infection, RSV stock was diluted such that each mouse was given 10^7 pfu (plaque forming unit) of the virus intranasally. […]
Nucleosomes released in the cytoplasm during apoptosis were detected by a nucleosome ELISA assay kit (Calbiochem Nucleosome ELISA kit, Cat. No. QIA25, San Diego, Calif.) according to the manufacturer's protocol (User Protocol Q1A25 Rev. 28 Sep. 2005 RFH).

[2] = test system: chemically induced forms of breast cancer; details: orally administered, animals; cited from earlier work

SMILES: c1ccc2c(Cc3c[nH]c4ccccc34)c[nH]c2c1 [DIM, 3,3′-diindolylmethane]
- apoptosis in TUNEL stained photomicrographs (RSV infected A549 cells): clearly showed earlier apoptosis
- time of culture at which apoptosis specific Caspase-3 is activated (Caspase-3): less than 12 hrs
- apoptosis in mouse lung: apoptosis-specific nucleosomes [1]: increased presenence of apoptosis-specific nucleosomes
- tumor growth [2]: inhibits the growth of certain chemically induced forms of breast cancer
